Data reported in patent US8532742B2, “System and method for simultaneous 3DPR device tracking and imaging under MR-guidance for therapeutic endovascular interventions” (Wisconsin Alumni Research Foundation, priority 2006, dated 2013).

Experiments:
[1] = Diffusion of a fluorescent probe in swollen gelatin gel by FRAP; format: physicochemical; details: coating thickness 60 μm, diffusion coefficient 9×10-12 m2s-1
Excerpt: To assess the stability of DTPA[Gd(III)] in the gelatin coating, the diffusion of a fluorescence probe in gelatin was studied by the technique of fluorescence recovery after photobleaching (FRAP). The instrument and data analysis scheme are described in Kim, S. H. and Yu, H., J. Phys. Chem. 1992, 96, 4034, which is hereby fully incorporated by reference. Fluorescein was used as the fluorescence probe due, in part, to its molecular size being roughly the same as that of DTPA[Gd(III)]. The focus of the study was to examine the possible retardation effects of gelatin concentration and cross-link density on the diffusion, which was determined at room temperature, i.e., below the gel point of gelatin. The diffusion of fluorescein probe slows down with the increase of gelatin concentration. The diffusion coefficient decreases from 1.5×10-10 to 9×10-12 […]-1 when the concentration of gelatin increases from 9% to 40%. […] Accordingly, the probe diffusion is more likely controlled by the concentration of gelatin rather than the cross-link density. On the other hand, the cross-link density may determine the swelling ratio of gelatin, i.e., the concentration of gelatin in aqueous solution. […]

[2] = MR visibility test of gelatin/DTPA[Gd(III)] coating on PE rod in saline and yogurt (Example 14); details: soaked in water for 12 hours before MRI test
Experimental: Samples having the above formulations were transferred to a glass tube and kept in a water bath at 35° C. A bare PE rod (5 cm in length) was then dipped into the solution, and then removed. The rod was then cooled to room temperature to allow chill-setting of the gelatin solution and to form the coating on the rod surface. The same procedure was repeated to overcoat additional layers of gel. The final dry thickness of gel-coating was about 60 μm.
The gelatin coatings were dried in air while being chemically cross-linked by BVSM. The dried and cross-linked samples were then soaked in distilled water for 12 hours. Soaking each sample in distilled water may remove the DTPA[Gd(III)] that was not physically or chemically constrained by the cross-linked network of gelatin overcoat. Because the DTPA[Gd(III)] complexes were not chemically linked to the gelatin chains, most of them would be expected to diffuse out of the coating when soaked in water, whereas some of DTPA[Gd(III)] may be confined by the crystal domains in gelatin or by hydrogen bonding between gelatin chains and DTPA. In any event, after the soaking, the gelatin coating was dried again in air before MRI test.
The MR visibility of the samples prepared as outlined above, was tested in two media: saline and yogurt. […]

Row | time to diffuse out of the gelatin coating [1] | Compound | retention of complex in gelatin gel after soaking [2]
1 | about 67 seconds | O=C(O)CN(CCN(CC(=O)O)CC(=O)O)CCN(CC(=O)O)CC(=O)O [DTPA, diethylenetriaminepentaacetic acid] | 
2 |  | O=C([O-])CN(CCN(CC(=O)[O-])CC(=O)O)CCN(CC(=O)[O-])CC(=O)O.[Gd+3] [DTPA[Gd(III)], gadolinium-diethylene triamine pentaacetic acid] | some fraction of DTPA[Gd(III)] remained in the gel
